Where two headings read alike, the source gives them in different places.
Columns and labels:
Assay type in all cases: in vivo
Alternaria solani = test: Control of disease in tomato plants inoculated with Alternaria solani; settings: 1 μM spray every 15 days for 3 months; for percentage of mortality due to disease: mortality at 3 months
Method: (§1) In order to evaluate the effect of the brassinosteroid analogue (25R)-3-hydroxy-C-homo-11-oxa-5-espirostan-12-one and a natural brassinosteroid (brassinolide), on the control of other plant diseases, experiments were conducted with tobacco and tomato plants inoculated with Phytophthora parasitica and Alternaria solani, respectively. Both the natural brassinosteroid as the analogue were applied by spraying at a concentration of 1 μM every 15 days for 3 months. The mortality rate was determined at 3 months. […] Hundred plants were used for each treatment. Untreated plants were used as controls.

[1] = tested on: Candidatus ‘Liberibacter asiaticus’; settings: for effect on bacteria levels during the evaluation period: 1 μM spray every 15 days for 6 months, 10 HLB infected citrus plants, FIG. 5
Phytophthora parasitica = test: Control of disease in tobacco plants inoculated with Phytophthora parasitica; settings: 1 μM spray every 15 days for 3 months; for percentage of mortality due to disease: mortality at 3 months
Method: as §1

[2] = tested on: genes related to defense against diseases of citrus plants; test: Relative expression of defense-related genes in citrus plants by real-time quantitative PCR; settings: Citrus sinensis, 20 μM spray
Method: Citrus plants (Citrus sinensis) were treated with the brassinosteroid analogue (25R)-3-hydroxy-C-homo-11-oxa-5-espirostan-12-one at 20 μM (Iglesias et al. (1998) Synthetic Communications 28: 75-81). Leaves from five plants were collected at 0, 1, 5, 10, 24 and 48 hours after spray application. Total RNA was extracted from leaves using the RNeasy kit (Qiagen, Valencia, Calif.) according to manufacturer's instructions, which includes a DNase treatment. The cDNAs were synthesized by using oligo-dT primer and reverse transcription kit SuperScript III (Invitrogen, Carlsbad, Calif.) according to manufacturer's instructions. The real-time quantitative PCR was performed using a RotorGene 3000 PCR machine (Corbett, Australia) and QuantiTect SYBR Green PCR kit (Qiagen). The reaction conditions in real-time PCR were: an initial denaturation step at 95° C. for 15 min. followed by denaturation at 95° C. for 15 s, an alignment step for 30 s at 60° C. and an extension step for 30 s at 72° C. for 40 cycles. The analysis was carried out using the RotorGene 3000 software (Corbett, Australia) and five replicates were used for each sample. Experiments were repeated twice.

[3] = tested on: Candidatus ‘Liberibacter asiaticus’; settings: adult plants, natural conditions, 20 mM spray every 15 days, one year, FIG. 3B
[4] = tested on: Candidatus ‘Liberibacter asiaticus’; settings: HLB infected Citrus sinensis treated for one year, FIG. 4A
[5] = tested on: genes related to the natural defense mechanism of plants against diseases; test: Identification of new defense genes activated in treated citrus plants by SuperSAGE; settings: Citrus sinensis, 20 μM spray, leaves 1-48 hours, FIG. 2
Method: Citrus plants (Citrus sinensis) were treated with the brassinosteroid analogue (25R)-3-hydroxy-C-homo-11-oxa-5-espirostan-12-one at 20 μM. Leaves from five plants were collected at 1, 5, 10, 24 and 48 hours after spray application. Total RNA was extracted from leaves using the RNeasy kit (Qiagen, Valencia, Calif.) according to manufacturer's instructions. The cDNAs were synthesized by using biotinylated oligo-dT primer and reverse transcription kit SuperScript III (Invitrogen, Carlsbad, Calif.) according to manufacturer's instructions. Samples of five citrus plants treated with water and collected during the times listed above were used as control. The identification and characterization of new genes was performed by the construction of two cDNA libraries by the technique of SuperSAGE (Matsumura et al. (2003) PNAS 100: 15718-15723). The control library was the mixture of leaves of plants treated with water at different times and target sample was the mixture of citrus plant leaves treated with the analogue at different times. The new genes related to plant response to the HLB, activated by application of brassinosteroid analogue, were isolated, sequenced and analyzed.

[6] = tested on: Candidatus ‘Liberibacter asiaticus’; settings: 1 μM spray twice a month, area with HLB plants and Diaphorina citri, FIG. 7
[7] = greenhouse, Citrus sinensis with HLB, 20 μM spray every 15 days, 6 months, FIG. 3A

CC(C)[C@H](C)[C@@H](O)[C@H](O)[C@@H](C)[C@H]1CC[C@H]2[C@@H]3COC(=O)[C@H]4C[C@H](O)[C@H](O)C[C@]4(C)[C@H]3CC[C@]12C [brassinolide, reference compound]
effect on incidence of disease (Alternaria solani): marked effect in reducing the incidence of diseases
percentage of mortality due to disease (Alternaria solani): 12 percentage
effect on bacteria levels during the evaluation period [1]: significant reduction in bacteria levels
effect on incidence of disease (Phytophthora parasitica): marked effect in reducing the incidence of diseases
percentage of mortality due to disease (Phytophthora parasitica): 13 percentage

C[C@@H]1CC[C@@]2(OC1)O[C@H]1C[C@H]3[C@@H]4CC[C@H]5CC(O)CC[C@]5(C)[C@H]4OC(=O)C[C@]3(C)[C@H]1[C@@H]2C (stereo partly drawn) [brassinosteroid analogue, (25R)-3-hydroxy-C-homo-11-oxa-5-espirostan-12-one]
effect on incidence of disease (Alternaria solani): marked effect in reducing the incidence of diseases
percentage of mortality due to disease (Alternaria solani): 9 percentage
time of highest expression of the rest of the genes ([2]; after application): 5 h
time of highest level of expression of allene oxide synthase gene ([2]; after application): 24 h
activation of all analyzed genes (chitinase, β-1,3-glucanase, glutathione peroxidase, phenylalanine-ammonia lyase, superoxide dismutase, allene oxide synthase) ([2]; leaves 0-48 hours, FIG. 1): activated
significant reduction in bacteria levels, from [3]: third months
undetectable levels of bacteria reached from months [3]: 8 months
presence of bacteria in leaves by electron microscopy [4]: presence of bacteria was not observed
Absolute concentration of the bacterium after 6 months of treatment ([1]; 0.001 μM, spray every 15 days for 6 months): 522 Copies of the bacteria by reaction
Absolute concentration of the bacterium after 6 months of treatment ([1]; 0.01 μM, spray every 15 days for 6 months): 29 Copies of the bacteria by reaction
effect on bacteria levels during the evaluation period [1]: significant reduction in bacteria levels
levels of bacteria, application two times a month and weekly compared with a single application per month ([1]; 1 μM, FIG. 6): significantly reduced levels of bacteria, more early
Absolute concentration of the bacterium after 6 months of treatment ([1]; 1 μM, spray every 15 days for 6 months): 1 Copies of the bacteria by reaction
Absolute concentration of the bacterium after 6 months of treatment ([1]; 5 μM, spray every 15 days for 6 months): 0 Copies of the bacteria by reaction
Absolute concentration of the bacterium after 6 months of treatment ([1]; 10 μM, spray every 15 days for 6 months): 0 Copies of the bacteria by reaction
Absolute concentration of the bacterium after 6 months of treatment ([1]; 20 μM, spray every 15 days for 6 months): 0 Copies of the bacteria by reaction
Absolute concentration of the bacterium after 6 months of treatment ([1]; 40 μM, spray every 15 days for 6 months): 0 Copies of the bacteria by reaction
Absolute concentration of the bacterium after 6 months of treatment ([1]; 60 μM, spray every 15 days for 6 months): 0 Copies of the bacteria by reaction
bacteria levels ([1]; concentrations of 0.01 and up to 60 μM, spray every 15 days for 6 months): drastically reduced
significant reduction in levels of bacteria, from [1, 7]: second month
undetectable levels of bacteria reached from month [1, 7]: 4 month
activation of new genes identified by SuperSAGE [5]: simultaneously activates genes related to hypersensitive response, salicylic acid and jasmonic acid/ethylene
effect on incidence of disease (Phytophthora parasitica): marked effect in reducing the incidence of diseases
percentage of mortality due to disease (Phytophthora parasitica): 11 percentage
protection of citrus plants without HLB against infection [6]: protect them against infection from bacteria

Reference: patent US10104889B2 (priority 2011, dated 2018)
